Our source for the EC50 values is patent US20240166693A1, “METHODS AND COMPOUNDS FOR MODULATING MYOTONIC DYSTROPY 1” (Design Therapeutics, Inc., priority 2020, published 2024).

A word on the EC50: it is the concentration at which the effect is half-maximal.

Molecules are shown by their SMILES.

The first experiment has as its system Myotonic Dystrophy 1 affected patient fibroblasts (Coriell GM04602; 1600 CTG repeats). As to the kind of experiment: DM1 foci reduction assay (CAG10-Cy3 FISH, average foci per nucleus). The class given is cell-based. The conditions noted are these: Homo sapiens, Fibroblast, 48 h, read-out: Foci Reduction in Fibroblast EC50, 48 h (nM). Here is the method: DM1 foci reduction assay methods: Myotonic Dystrophy 1 affected patient fibroblasts (Coriell GM04602; 1600 CTG repeats) and wild type fibroblasts (Coriell GM07492; control line) were cultured separately in Gibco DMEM (1×)+4.5 g/L D-Glucose+L-Glutamine+110 mg/L Sodium Pyruvate, supplemented with 10% FBS and 1× Pen/Strep. Cells were maintained in incubator at 37° C. and 5% CO2 with media refresh every 48-72 hours.
At 90-95% confluency, both cell lines were harvested using Trypl-E then pelleted at 500×g for 5 minutes and were resuspended in media. DM1 fibroblasts were seeded in Agilent 96 well black plates at a density of 5,000 cells/well in 200 μL media; 8 wells were reserved for control fibroblasts. Plates were returned to incubator for 24 hours at 37° C. and 5% CO2.
Compounds were diluted from 10 mM stock to 1 mM in DMSO, then diluted once more to 6 μM (2× concentration) in media. Media was removed from all plates and cells were replenished with 100 μL media. Cells were treated in 8-point dose response, 1:3 fold dilution, 3 μM top dose via addition of 100 μL of 6 μM (2× concentration) compound to the 100 μL media with cells. Plates were returned to incubator for 48-hour time-course experiment at 37° C. and 5% CO2.
Following treatment, compounds were removed, and plates were washed with PBS, then cells were fixed in 75 μL 4% PFA solution for 20 minutes at room temperature. Plates were washed twice with PBS and twice with cold 70% ethanol before permeabilization with 250 μL cold 70% ethanol for 24-72 hours at −20° C.
After permeabilization, plates were washed once with a 30% formamide and 2×SSC buffer and rehydrated in that buffer for 15 minutes at room temperature. Cells were incubated overnight at 37° C. in 75 μL of a hybridization solution containing 30% formamide, 2×SSC, 25 mg/mL dextran sulfate, 2.5 mg/mL BSA, 0.2 μg/mL Herring sperm DNA, 2 mM vanadyl-ribonucleoside complex, and 5 nM CAG10-Cy3 probe.
Plates were washed once with 30% formamide in 2×SSC buffer, then twice with the buffer for 30 minutes at 37° C., 300 RPM in an incubating plate shaker. Cells were stained with 75 μL of 2.5 μg/mL DAPI in PBS for 5 minutes at room temperature. Plates were then washed twice with PBS and stored in 250 μL PBS. Plates were sealed with adhesive foil and wiped down with 70% ethanol.
Cells were imaged on a Cytation5 with a 20× objective sampling from 4 areas of each well. Nuclei were captured under DAPI channel and foci under RFP channel. Plates were analyzed on an average foci per nucleus per well basis.
On to `CCN(CC)CCCC[C@H](NC(=O)CCCCOCCOCCNC(=O)c1ccc(C(C)(C)C)cc1)C(=O)N[C@@H](CO)C(=O)NCCOCCOCCOCCOCCOCCNC(=O)CCNC(=O)c1nc(NC(=O)c2cc(NC(=O)CCNC(=O)c3nc(NC(=O)CCCNC(=O)c4cc(NC(=O)c5nc(NC(=O)CCNC(=O)c6cc(NC(=O)c7nccn7C)cn6C)cn5C)cn4C)cn3C)cn2C)cn1C` [Compound 141], for which the 50% effective concentration (EC50) is 100 to 500 nM.

For `CCN(CC)CCCC[C@H](NC(=O)[C@H](CC(C)C)NC(=O)[C@H](C)NC(=O)[C@H](Cc1ccccc1)NC(=O)c1ccc(C(C)(C)C)cc1)C(=O)N[C@@H](CO)C(=O)NCCOCCOCCOCCOCCOCCNC(=O)c1cc(NC(=O)c2cc(NC(=O)c3nc(NC(=O)c4cc(NC(=O)[C@@H](N)CCNC(=O)c5nc(NC(=O)CCNC(=O)c6cc(NC(=O)c7nccn7C)cn6C)cn5C)cn4C)cn3C)cn2C)cn1C` [Compound 56], the EC50 was greater than 500 nM.

Regarding `CCN(CC)CCCC[C@H](NC(=O)COCCOCCNC(=O)c1ccc(C(C)(C)C)cc1)C(=O)N[C@@H](CO)C(=O)NCCOCCOCCOCCOCCOCCNC(=O)CCNC(=O)c1nc(NC(=O)c2cc(NC(=O)CCNC(=O)c3nc(NC(=O)CCCNC(=O)c4cc(NC(=O)c5nc(NC(=O)CCNC(=O)c6cc(NC(=O)c7nccn7C)cn6C)cn5C)cn4C)cn3C)cn2C)cn1C` [Compound 66], the 50% effective concentration (EC50) lay in the range of 100 to 500 nM.

Turning to `CN(CCCC[C@H](NC(=O)[C@H](CCCN1CCOCC1)NC(=O)[C@@H](NC(=O)[C@H](Cc1ccccc1)NC(=O)c1ccc(C(C)(C)C)cc1)C1CCC1)C(=O)N[C@@H](CO)C(=O)NCCOCCOCCOCCOCCOCCNC(=O)CCNC(=O)c1nc(NC(=O)c2cc(NC(=O)CCNC(=O)c3nc(NC(=O)CCCNC(=O)c4cc(NC(=O)c5nc(NC(=O)CCNC(=O)c6cc(NC(=O)c7nccn7C)cn6C)cn5C)cn4C)cn3C)cn2C)cn1C)C1CC2CCC1C2` (stereo partly drawn) [Compound 149], the EC50 was 100 to 500 nM.

Regarding `CCN(CC)CCCC[C@H](NC(=O)[C@H](CC(C)C)NC(=O)[C@H](C)NC(=O)[C@H](Cc1ccccc1)NC(=O)c1ccc(C(C)(C)C)cc1)C(=O)N[C@@H](CO)C(=O)NCCOCCOCCOCCOCCOCCNC(=O)CCNC(=O)c1nc(NC(=O)c2cc(NC(=O)CCNC(=O)c3nc(NC(=O)[C@H](N)CCNC(=O)c4cc(NC(=O)c5nc(NC(=O)CCNC(=O)c6cc(NC(=O)c7nccn7C)cn6C)cn5C)cn4C)cn3C)cn2C)cn1C` [Compound 101], the EC50 was in the range of 100 to 500 nM.

Regarding `CCCNC(=O)CCNC(=O)c1nc(NC(=O)c2nc(NC(=O)CCNC(=O)c3nc(NC(=O)[C@@H](CCNC(=O)c4cc(NC(=O)c5nc(NC(=O)CCNC(=O)c6cc(NC(=O)c7nccn7C)cn6C)cn5C)cn4C)NC(=O)COCCOCCOCCOCCOCCNC(=O)[C@H](CO)NC(=O)[C@H](CCCCN(CC)CC)NC(=O)[C@H](CC(C)C)NC(=O)[C@H](C)NC(=O)[C@H](Cc4ccccc4)NC(=O)c4ccc(C(C)(C)C)cc4)cn3C)cn2C)cn1C` [Compound 137], the EC50 was less than 100 nM.

In the case of `CCN(CC)CCCC[C@H](NC(=O)[C@H](CC(C)C)NC(=O)[C@H](C)NC(=O)[C@H](Cc1ccccc1)NC(=O)c1ccc(C(C)(C)C)cc1)C(=O)N[C@@H](CO)C(=O)N(C)CCOCCOCCN(C)C(=O)CCNC(=O)c1nc(NC(=O)c2cc(NC(=O)CCNC(=O)c3nc(NC(=O)CCCNC(=O)c4cc(NC(=O)c5nc(NC(=O)CCNC(=O)c6cc(NC(=O)c7nccn7C)cn6C)cn5C)cn4C)cn3C)cn2C)cn1C` [Compound 76], the EC50 is less than 100 nM.

The experiment is the same for the next values; noted with them: Homo sapiens, Fibroblast; DM1 fibroblasts, 48 h treatment, 8-point dose response, 3 μM top dose; read-out: Foci Reduction in Fibroblast EC50, 48 h.
Turning to `CCN(c1cc(-c2ccc(CN3CCN(CCOCCOCCOCCOCCOCCOCCOCCOCCOCCOCCNC(=O)CCNC(=O)c4nc(NC(=O)c5cc(NC(=O)CCNC(=O)c6nc(NC(=O)CCCNC(=O)c7cc(NC(=O)c8nc(NC(=O)CCNC(=O)c9cc(NC(=O)c%10nccn%10C)cn9C)cn8C)cn7C)cn6C)cn5C)cn4C)CC3)cc2)cc(C(=O)NCc2c(C)cc(C)[nH]c2=O)c1C)C1CCOCC1` [Compound 167], the EC50 was greater than 500 nM.

For `Cn1cc(NC(=O)c2nc(NC(=O)CCNC(=O)c3cc(NC(=O)c4nccn4C)cn3C)cn2C)cc1C(=O)NCCCC(=O)Nc1cn(C)c(C(=O)NCCC(=O)Nc2cc(C(=O)Nc3cn(C)c(C(=O)NCCC(=O)NCCOCCOCCOCCOCCOCCNC(=O)c4ccc(-c5cnc(NCc6ccco6)n6cnnc56)cc4)n3)n(C)c2)n1` [Compound 60], the EC50 is 100 to 500 nM.

Regarding `Cn1cc(CCn2c(CNCCOCCOCCOCCOCCOCCNC(=O)CCNC(=O)c3nc(NC(=O)c4cc(NC(=O)CCNC(=O)c5nc(NC(=O)CCCNC(=O)c6cc(NC(=O)c7nc(NC(=O)CCNC(=O)c8cc(NC(=O)c9nccn9C)cn8C)cn7C)cn6C)cn5C)cn4C)cn3C)nc(-c3cnn(C)c3)c2-c2ccc(C#N)cc2)cn1` [Compound 172], the 50% effective concentration (EC50) was greater than 500 nM.

With `COc1c(OCCOCCOCCOCCOCCOCCNC(=O)CCNC(=O)c2nc(NC(=O)c3cc(NC(=O)CCNC(=O)c4nc(NC(=O)CCCNC(=O)c5cc(NC(=O)c6nc(NC(=O)CCNC(=O)c7cc(NC(=O)c8nccn8C)cn7C)cn6C)cn5C)cn4C)cn3C)cn2C)cccc1C(=O)N1CCN(C(=O)COc2ccc(NC(N)=O)c(C)c2)CC1` [Compound 95], the EC50 is greater than 500 nM.

With `CC(C)c1cnn2c(NCc3ccc(OCCOCCOCCOCCOCCOCCOCCOCCOCCOCCOCCOCCOCCOCCOCCOCCNC(=O)CCNC(=O)c4nc(NC(=O)c5cc(NC(=O)CCNC(=O)c6nc(NC(=O)CCCNC(=O)c7cc(NC(=O)c8nc(NC(=O)CCNC(=O)c9cc(NC(=O)c%10nccn%10C)cn9C)cn8C)cn7C)cn6C)cn5C)cn4C)cc3-n3cccn3)nc(OC3CCCNC3)nc12` (stereo not drawn) [Compound 54], the EC50 is greater than 500 nM.

Take `COc1c(OCCOCCOCCOCCOCCOCCNC(=O)CCNC(=O)c2nc(NC(=O)c3cc(NC(=O)CCNC(=O)c4nc(NC(=O)CCCNC(=O)c5cc(NC(=O)c6nc(NC(=O)CCNC(=O)c7cc(NC(=O)c8nccn8C)cn7C)cn6C)cn5C)cn4C)cn3C)cn2C)cccc1C(=O)N1CCN(C(=O)COc2cccc(C)c2)CC1` [Compound 94]: the EC50 is greater than 500 nM.

For `Cn1cc(NC(=O)c2nc(NC(=O)CCNC(=O)c3cc(NC(=O)c4nccn4C)cn3C)cn2C)cc1C(=O)NCCCC(=O)Nc1cn(C)c(C(=O)NCCC(=O)Nc2cc(C(=O)Nc3cn(C)c(C(=O)NCCC(=O)NCCOCCOCCOCCOCCOCCOc4ccc(NC(=O)CCCCCCC(=O)NO)cc4)n3)n(C)c2)n1` [Compound 129, N-hydroxy-N′-{4-[(17-{3-[(1-methyl-4-{1-methyl-4-[3-({1-methyl-4-[4-({1-methyl-4-[1-methyl-4-(3-{[1-methyl-4-(1-methylimidazole-2-amido)pyrrol-2-yl]formamido}propanamido)imidazole-2-amido]pyrrol-2-yl}formamido)butanamido]imidazol-2-yl}formamido)propanamido]pyrrole-2-amido}imidazol-2-yl)formamido]propanamido}-3,6,9,12,15-pentaoxaheptadecan-1-yl)oxy]phenyl}octanediamide], the EC50 was greater than 500 nM.

In the case of `CN(C)[C@@H]1CN(C2CCc3cccc(F)c32)C[C@H]1c1ccc(N2CCN(C(=O)COCCOCCOCCOCCOCCNC(=O)CCNC(=O)c3nc(NC(=O)c4cc(NC(=O)CCNC(=O)c5nc(NC(=O)CCCNC(=O)c6cc(NC(=O)c7nc(NC(=O)CCNC(=O)c8cc(NC(=O)c9nccn9C)cn8C)cn7C)cn6C)cn5C)cn4C)cn3C)CC2)cc1` (stereo partly drawn) [Compound 174], the EC50 was greater than 500 nM.

Take `CCN(c1cc(-c2ccc(CN3CCN(CCCCCCCNC(=O)CCNC(=O)c4nc(NC(=O)c5cc(NC(=O)CCNC(=O)c6nc(NC(=O)CCCNC(=O)c7cc(NC(=O)c8nc(NC(=O)CCNC(=O)c9cc(NC(=O)c%10nccn%10C)cn9C)cn8C)cn7C)cn6C)cn5C)cn4C)CC3)cc2)cc(C(=O)NCc2c(C)cc(C)[nH]c2=O)c1C)C1CCOCC1` [Compound 164]: the EC50 was greater than 500 nM.

Take `CC(C)c1cnn2c(NCc3ccc(OCCOCCOCCOCCOCCOCCOCCOCCOCCOCCOCCNC(=O)CCNC(=O)c4nc(NC(=O)c5cc(NC(=O)CCNC(=O)c6nc(NC(=O)CCCNC(=O)c7cc(NC(=O)c8nc(NC(=O)CCNC(=O)c9cc(NC(=O)c%10nccn%10C)cn9C)cn8C)cn7C)cn6C)cn5C)cn4C)cc3-n3cccn3)nc(OC3CCCNC3)nc12` (stereo not drawn) [Compound 53]: the EC50 was greater than 500 nM.

For `CC(=O)c1cc(-c2ccccc2S(C)(=O)=O)c2cc(OCCOCCOCCOCCOCCOCCOCCOCCOCCOCCOCCNC(=O)CCNC(=O)c3nc(NC(=O)c4cc(NC(=O)CCNC(=O)c5nc(NC(=O)CCCNC(=O)c6cc(NC(=O)c7nc(NC(=O)CCNC(=O)c8cc(NC(=O)c9nccn9C)cn8C)cn7C)cn6C)cn5C)cn4C)cn3C)ccn12` [Compound 170], the EC50 is greater than 500 nM.
